Source: patent publication US12060349B2, “Glucosylceramide synthase inhibitors” (Genzyme Corporation, priority 2012, dated 2024)
pIC50: −log10 of the molar value. Where two headings read alike, the source gives them in different places. One block for each compound: values may come before it.

Legend:
[1] = system: GM3 expression on the cell surface, C32 human melanoma cells; test: cell based phenotypic assay, cell surface GM3 by antibody mediated immunofluorescence, C32 (GM3 C32 IC50); conditions: Homo sapiens, 50% inhibition of GM3 expression on the cell surface
Outline: (§1)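 B16 mouse and C32 human melanoma cells; cell-surface GM3 measured by antibody-mediated immunofluorescence, giving IC50.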

[2] = system: GM3 expression on the cell surface, B16 mouse melanoma cells; test: cell based phenotypic assay, cell surface GM3 by antibody mediated immunofluorescence, B16 (GM3 B16 IC50); conditions: Mus musculus, 50% inhibition of GM3 expression on the cell surface
Outline: as §1

B16 mouse melanoma cells = test: cell viability in the B16 cell-based assay (Viability, B16 IC50)
Outline: (§2)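 Viability readouts were run alongside the GM3 cell-surface assay in the same B16 and C32 cultures. A figure above 10 indicates no cell death.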

[3] = target: T1, glucosylceramide synthase (Homo sapiens, UniProt Q16739); test: microsomal assay measuring conversion of ceramide to glucosylceramide by HPLC (GCS IC50); type: biochemical; conditions: concentration causing 50% inhibition of glucosylceramide synthase activity
T1 construct: Microsomes were isolated from A375 human melanoma cells; endogenous in cells; host or cells: A375 human melanoma cells (microsomal fraction, 100,000 g pellet)
T1 sequence (Q16739 1-394): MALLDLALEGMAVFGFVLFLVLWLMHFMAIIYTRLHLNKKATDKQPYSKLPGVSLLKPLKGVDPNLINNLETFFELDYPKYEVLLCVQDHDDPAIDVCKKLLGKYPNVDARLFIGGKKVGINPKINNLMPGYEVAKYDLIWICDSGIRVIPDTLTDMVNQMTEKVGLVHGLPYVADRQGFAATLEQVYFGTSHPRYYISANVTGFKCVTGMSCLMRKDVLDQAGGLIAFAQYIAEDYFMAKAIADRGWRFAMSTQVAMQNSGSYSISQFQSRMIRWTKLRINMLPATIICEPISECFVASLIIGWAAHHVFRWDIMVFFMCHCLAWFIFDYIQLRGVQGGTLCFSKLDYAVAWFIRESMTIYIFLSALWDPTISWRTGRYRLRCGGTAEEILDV
Outline: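 IC50 is the compound concentration halving glucosylceramide synthase activity. Activity was measured in microsomes, with HPLC quantifying glucosylceramide formed from ceramide.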

C32 human melanoma cells = test: cell viability in the C32 cell-based assay (Viability, C32 IC50); conditions: concentration causing 50% cell death, values greater than 10 represent a lack of cell death
Outline: as §2

[4] = read-out: GM3 C32 IC50, C32 human melanoma cells
[5] = read-out: GM3 B16 IC50, B16 mouse melanoma cells
[6] = read-out: Viability, B16 IC50, B16 cells, concentration causing 50% cell death, values greater than 10 represent a lack of cell death
[7] = read-out: Viability, C32 IC50, C32 cells
[8] = C32 human melanoma cells, read-out: GM3 C32 IC50
[9] = B16 mouse melanoma cells, read-out: GM3 B16 IC50
[10] = Mus musculus, B16, B16 cells, concentration causing 50% cell death, values greater than 10 represent a lack of cell death, read-out: Viability, B16 IC50
[11] = Homo sapiens, C32, C32 cells, read-out: Viability, C32 IC50
[12] = Mus musculus, B16, read-out: Viability, B16 IC50
[13] = Homo sapiens, C32, read-out: Viability, C32 IC50, C32 cells

SMILES: COCCOc1ccc(C#CC(C)(C)NC(=O)OC2CN3CCC2CC3)cc1 (stereo not shown) [Example 329, Quinuclidin-3-yl (4-(4-(2-methoxyethoxy)phenyl)-2-methylbut-3-yn-2-yl)carbamate]
pIC50 [1, 4]: 6.55
pIC50 [2, 5]: 5.57
pIC50 (B16 mouse melanoma cells; [6]): ≤ 5.00
pIC50 [3]: 5.50
pIC50 (C32 human melanoma cells; [7]): ≤ 5.00

SMILES: COCCCOc1ccc(C#CC(C)(C)NC(=O)OC2CN3CCC2CC3)cc1 (stereo not shown) [Example 331, Quinuclidin-3-yl (4-(4-(3-methoxypropoxy)phenyl)-2-methylbut-3-yn-2-yl)carbamate]
pIC50 [1, 4]: 6.93
pIC50 [2, 5]: 5.75
pIC50 (B16 mouse melanoma cells; [6]): ≤ 5.00
pIC50 [3]: 5.88
pIC50 (C32 human melanoma cells; [7]): ≤ 5.00

SMILES: CCC1(NC(=O)NC(C)(C)C#Cc2ccc(COCc3cccnc3)cc2)CN2CCC1CC2 (stereo not shown) [Example 332, 1-(3-Ethylquinuclidin-3-yl)-3-(2-methyl-4-(4-((pyridin-3-ylmethoxy)methyl)phenyl)but-3-yn-2-yl)urea]
pIC50 [1, 8]: 7.81
pIC50 [2, 9]: 6.02
pIC50 (B16 mouse melanoma cells; [10]): ≤ 5.00
pIC50 [3]: 7.31
pIC50 (C32 human melanoma cells; [11]): ≤ 5.00

SMILES: CCCC1(NC(=O)NC(C)(C)C#Cc2ccc(COCc3cccnc3)cc2)CN2CCC1CC2 (stereo not shown) [Example 333, 1-(2-Methyl-4-(4-((pyridin-3-ylmethoxy)methyl)phenyl)but-3-yn-2-yl)-3-(3-propylquinuclidin-3-yl)urea]
pIC50 [1, 8]: 8.21
pIC50 [2, 9]: 6.38
pIC50 (B16 mouse melanoma cells; [10]): ≤ 5.00
pIC50 [3]: 7.79
pIC50 (C32 human melanoma cells; [11]): 5.50

SMILES: CC(C)(C)CCS(=O)(=O)c1ccc(C#CC(C)(C)NC(=O)OC2CN3CCC2CC3)cc1 (stereo not shown) [Example 334, Quinuclidin-3-yl (4-(4-((3,3-dimethylbutyl)sulfonyl)phenyl)-2-methylbut-3-yn-2-yl)carbamate]
pIC50 [1, 4]: 7.93
pIC50 [2, 5]: 6.50
pIC50 (B16 mouse melanoma cells; [12]): 5.48
pIC50 [3]: 7.10
pIC50 (C32 human melanoma cells; [13]): ≤ 5.00

pIC50 [1, 8]: 8.36
pIC50 [2, 9]: 6.71
pIC50 [3]: 7.84
SMILES: CC(C)(C)CCS(=O)(=O)c1ccc(C#CC(C)(C)NC(=O)OC2CCN3CCC2CC3)cc1 (stereo not shown) [Example 335, 1-Azabicyclo[3.2.2]nonan-4-yl (4-(4-((3,3-dimethylbutyl)sulfonyl)phenyl)-2-methylbut-3-yn-2-yl)carbamate]
pIC50 (B16 mouse melanoma cells; [10]): 5.67
pIC50 (C32 human melanoma cells; [11]): 6.00

pIC50 [1, 8]: 9.04
pIC50 [2, 9]: 7.41
pIC50 [3]: 8.92
SMILES: CC(C)(C)CCS(=O)(=O)c1ccc(C#CC(C)(C)NC(=O)NC2(C)CCN3CCC2CC3)cc1 (stereo not shown) [Example 336, 1-(4-(4-((3,3-Dimethylbutyl)sulfonyl)phenyl)-2-methylbut-3-yn-2-yl)-3-(4-methyl-1-azabicyclo[3.2.2]nonan-4-yl)urea]
pIC50 (B16 mouse melanoma cells; [10]): ≤ 5.00
pIC50 (C32 human melanoma cells; [11]): ≤ 5.00

SMILES: CC(C)(C)CCS(=O)(=O)c1ccc(C#CC(C)(C)NC(=O)NC2(C)CN3CCC2CC3)cc1 (stereo not shown) [Example 337, 1-(4-(4-((3,3-Dimethylbutyl)sulfonyl)phenyl)-2-methylbut-3-yn-2-yl)-3-(3-methylquinuclidin-3-yl)urea]
pIC50 [1, 8]: 8.60
pIC50 [2, 9]: 7.03
pIC50 (B16 mouse melanoma cells; [10]): 5.67
pIC50 [3]: 7.84
pIC50 (C32 human melanoma cells; [11]): 6.00

SMILES: CCC1(NC(=O)NC(C)(C)C#Cc2ccc(S(=O)(=O)CCC(C)(C)C)cc2)CN2CCC1CC2 (stereo not shown) [Example 338, 1-(4-(4-((3,3-Dimethylbutyl)sulfonyl)phenyl)-2-methylbut-3-yn-2-yl)-3-(3-ethylquinuclidin-3-yl)urea]
pIC50 [1, 8]: 9.01
pIC50 [2, 9]: 7.14
pIC50 (B16 mouse melanoma cells; [10]): 5.67
pIC50 [3]: 8.35
pIC50 (C32 human melanoma cells; [11]): 6.00

SMILES: COCC(C)(C)c1ccc(C#CC(C)(C)NC(=O)NC2(C)CN3CCC2CC3)cc1 (stereo not shown) [Example 339, 1-(4-(4-(1-Methoxy-2-methylpropan-2-yl)phenyl)-2-methylbut-3-yn-2-yl)-3-(3-methylquinuclidin-3-yl)urea]
pIC50 [1, 8]: 7.59
pIC50 [2, 9]: 6.14
pIC50 (B16 mouse melanoma cells; [10]): ≤ 5.00
pIC50 [3]: 6.87
pIC50 (C32 human melanoma cells; [11]): ≤ 5.00

SMILES: COCCCOc1ccc(-c2nc(C(C)(C)NC(=O)OC3CN4CCC3CC4)cs2)cc1 (stereo not shown) [Example 340, Quinuclidin-3-yl (2-(2-(4-(3-methoxypropoxy)phenyl)thiazol-4-yl)-propan-2-yl)carbamate]
pIC50 [1, 4]: 7.37
pIC50 [2, 5]: 6.71
pIC50 (B16 mouse melanoma cells; [12]): ≤ 5.00
pIC50 [3]: 6.77
pIC50 (C32 human melanoma cells; [13]): ≤ 5.00
